# Laboratory results from patent US20100068150A1, “Selective Caspase Inhibitors” (The Board of Trustees of the Leland Stanford Junior …, priority 2006, published 2010).
# Target: T1, FL-C7 (full-length caspase-7) (Homo sapiens, UniProt P55210)
# T1 construct: the p37 band as the full-length caspase-7 with intact N-terminus (FL-C7); endogenous in cells
# T1 sequence (P55210 1-303): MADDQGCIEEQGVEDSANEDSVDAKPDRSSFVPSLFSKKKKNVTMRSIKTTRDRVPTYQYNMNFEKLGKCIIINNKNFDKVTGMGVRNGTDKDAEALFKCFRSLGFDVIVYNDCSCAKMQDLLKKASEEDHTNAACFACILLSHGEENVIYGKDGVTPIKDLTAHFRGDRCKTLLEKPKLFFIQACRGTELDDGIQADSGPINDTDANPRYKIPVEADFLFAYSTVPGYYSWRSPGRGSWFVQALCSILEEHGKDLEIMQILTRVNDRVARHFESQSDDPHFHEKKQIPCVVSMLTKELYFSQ
# Assay: Inhibitor specificity in hypotonic 293 extracts, full-length caspase-7
# Format: biochemical
# Details: inhibitor 20 μM for 5 min, then KMB01 30 min
# Text: FIGS. 6 A-E illustrate that full-length active caspase-7 has unique inhibitor specificity and is processed to mature forms by downstream executioner caspases. (A) The caspase-3 specific inhibitor causes accumulation of a catalytically active full-length form of caspase-7. Cytosolic extracts from 293 cells were activated with cytochrome c/dATP for the indicated times followed by labeling with KMB01 (left panel) and western blotting with a caspase-7 specific antibody (right panel) as in FIG. 5A. […] (B) The exact same experiment as (A) except extracts from MCF-7 cells were used in place of 293 extracts. (**) indicates forms of caspase-7 that are likely a result of the alternative transcription start site at methionine-45 (C) Quantification of the relative activity of FL-C7 in uninhibited 293 extracts (from FIG. 5A), AB06 treated 293 extracts (from (A)) and uninhibited MCF-7 extracts (from (B)) (D) Inhibitor specificity of full-length and processed forms of caspase-7. Extracts (293) were activated for 5 min with cytochrome c/dATP and then incubated with NP-capped AOMK inhibitors containing the indicated primary amino acid sequences for 5 minutes before KMB01 was added and allowed to label residual caspase active sites for 30 minutes. Samples were analyzed by SDS-PAGE followed by biotin blotting using strepavidin-HRP (left panel) or western blotting for caspase-7 (right panel). Identities of labeled caspases are indicated. (E) Specificity of AB06 after prolonged incubation times. Extracts were treated with AB06 at the indicated concentrations simultaneously with cytochrome c/dATP. At the indicated times after activation, samples were labeled with KMB01 (10 μM) for 30 minutes. Labeled caspases were resolved by SDS-PAGE analysis followed by biotin blotting using strepavidin-HRP.
# To further confirm our assignment of the labeled species we treated samples at various activation times with purified recombinant Bir3 domain of XIAP. […]
# An additional surprising finding from the inhibitor studies was the overall lack of inhibition of the FL-C7 species by AB06 relative to mature p20 forms of caspase-7. […] Samples were analyzed for active site labeling and protein levels of both full-length and p20 forms of caspase-7 were monitored by western blot (FIG. 6D).
# Hypotonic 293 extracts (73 μg of total protein) were activated as described above and allowed to incubate for the indicated times. […] Labeling was carried out for an additional 30 minutes and samples (13.5 μg total protein) were analyzed by SDS-PAGE and biotin blotting as described above.
# Hypotonic 293 extracts (73 μg of total protein) were activated at 37° C. for 5 minutes as described above. […] Samples (13.5 μg total protein) were analyzed by SDS-PAGE and biotin blotting as described above
row,Compound,inhibition of FL-C7 labeling
1,"Cc1cccc(C)c1C(=O)OCC(=O)[C@H](CC(=O)O)NC(=O)[C@@H](NC(=O)[C@H](Cc1ccncc1)NC(=O)[C@H](CC(=O)O)NC(=O)Cc1ccc(O)c([N+](=O)[O-])c1)C(C)C [AB06, Np-D-3-V-D-DMBA]",relatively insensitive to inhibition
2,"Cc1cccc(C)c1C(=O)OCC(=O)[C@H](CC(=O)O)NC(=O)[C@@H](NC(=O)[C@H](CCC(=O)O)NC(=O)[C@H](CC(=O)O)NC(=O)Cc1ccc(O)c([N+](=O)[O-])c1)C(C)C [AB09, Np-D-E- V-D-DMBA]",almost totally inhibited
